Measured values reported in patent publication US20230381170A1, “METHOD FOR TREATING ALS/FTD THROUGH DEGRADATION OF RNA REPEAT EXPANSION” (University of Florida Research Foundation, Incorporated, priority 2020, published 2023).

Tests used:
[1] = tested on: r(G4C2)exp-containing nuclear foci; test: RNA foci imaging (RNA-FISH) in patient-derived LCLs; type: cell-based, human; details: 100 nM
Description: Imaging RNA Foci in LCLs. RNA foci containing r(G4C2)^exp were imaged using RNA fluorescence in situ hybridization (FISH) as previously described (13). Briefly, ALS patient-derived LCLs were treated with compound or ASO as described in “Measuring poly(GP) Levels by Electrochemiluminescence”. The cells were harvested, pelleted, and washed with 1×PBS. LCLs were then fixed in 2% paraformaldehyde in 1×PBS for 15 min at room temperature and then washed three times with 1×PBS. The fixed cells were then centrifuged, washed twice with 1×PBS, and seeded into poly lysine coated, glass bottom 96-well plates (˜5×10^5 cells/well). To ensure the cells adhered to the plate, they were incubated at 37° C. for >2 h. The cells were then incubated with 70% ethanol overnight at 37° C. The next day, LCLs were washed with 1×PBS for 15 min at room temperature, and then with 1×PBS containing 0.1% (v/v) Triton X-100 for 5 min at room temperature. […] Quantification was performed in triplicate with ˜200 nuclei counted per sample. Average number of foci per nuclei was assessed for each sample and reported. Statistical analysis was measured using an unpaired t-test with Welch's correction.

[2] = tested on: C9orf72 intron 1 harboring r(G4C2)exp; test: C9orf72 intron 1 RT-qPCR in patient-derived LCLs; type: cell-based, human; details: disease-affected LCLs
Description: Measuring Levels of C9orf72 and C9orf72 Variants by RT-qPCR. LCLs were seeded in 6-well plate (˜10^6 cells in 2 mL of growth medium) and incubated overnight at 37° C. Cells were then treated with various concentrations of compound for 24 h or with G4C2-ASO and Control-ASO (100 nM), delivered by transfection with Lipofectamine RNAiMax. RNA was extracted as described above and the expression of C9orf72 variants was determined by RT-qPCR. […] For compound treatment well, medium change was performed with fresh compound every 3-4 days. RNA was extracted as described above and the expression of C9orf72 variants was determined by RT-qPCR.

[3] = tested on: r(G4C2)exp-containing nuclear foci; test: RNA FISH of foci in brain of +/+PWR500 mice; type: in vivo, mouse; details: compared to vehicle
Description: Therapeutic Efficacy in a c9ALS/FD mouse model. All animal studies were completed as approved by the Scripps Florida Institutional Animal Care and Use Committee. A total of 24 mice (12+/+PWR500 [7 Male and 5 Female] and 12 WT [6 Male and 6 Female]) mice, age- and gender-matched and ranging in age from 18-22 weeks old were used in therapeutic efficacy studies (Table 6). Mice were anesthetized by intraperitoneal (i.p.) injection of 10 mg/mL Ketamine:1 mg/mL Xylazine solution. Intracerebroventricular (ICV) stereotactic injections of 10 μL of 7 (33 nmol) were administered into the right ventricle using the following coordinates: 0.2 mm posterior and 1.0 mm lateral to the right from the bregma and 3 mm deep. Mice were treated with 7 or vehicle consisting of 1% DMSO in Saline. Three weeks post-treatment, mice were euthanized, and tissue was harvested for study.
Fluorescence in situ Hybridization (FISH) with Immunofluorescence (IF). Tissues were excised, and brain tissue was sliced at the midline. The right hemisphere was fresh frozen with OCT in 2-methylbutane in liquid nitrogen, and 10 μm thick sections were prepared using a cryostat. The slides were then stained as previously described (36). […] Average number of foci per nuclei was assessed for each sample and reported. Statistical analysis was measured using an unpaired t-test with Welch's correction.

Structure (SMILES)	reduction of number of r(G4C2)exp-containing nuclear foci [1]	C9orf72 intron 1 levels [2]	number of r(G4C2)exp-containing nuclear foci ([3]; brain)	abundance of antisense r(G2C4)exp foci [3]
Cc1c2ccncc2c(C)c2c1[nH]c1ccc(OCCOCCOCCNCCOCCOCCOc3ccc4[nH]c5c(C)c6ccncc6c(C)c5c4c3)cc12 [Compound 3]	~60%	no effect	–	–
CCOC(=O)C1=C(Nc2ccccc2)S/C(=C\c2ccc(OCCOCCOCCOCCNC(=O)CCC(=O)N(CCOCCOCCOc3ccc4[nH]c5c(C)c6ccncc6c(C)c5c4c3)CCOCCOCCOc3ccc4[nH]c5c(C)c6ccncc6c(C)c5c4c3)c(O)c2)C1=O [Compound 7]	–	–	decreased	No effect
